According to PubChem BioAssay AID248 (DTP/NCI, 2004):
Where “and” joins values, the source holds several entries; their conditions need not be identical. Identical values can stand only once. Toxic doses and inconclusive results are not listed. No stated cut-off is given here; in the data, active means T/C of 150% or more; inactive means T/C below 125%.

System: L1210 leukemia ip in BDF1 mice, survival T/C
Test: NCI In Vivo Anticancer Drug Screen. Data for tumor model L1210 Leukemia (intraperitoneal) in B6D2F1 (BDF1) mice
Conditions: endpoint: mean survival time, higher = longer survival
In short: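 Transplantable tumor model; survival measured in treated vs vehicle control mice. Value = treated/control.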

[1] = dose: 100.0 mg/kg/injection, schedule: Q01DX001 (ip), vehicle: saline
[2] = dose: 100.0 mg/kg/injection, schedule: Q04DX003 (ip), vehicle: saline
[3] = dose: 200.0 mg/kg/injection, schedule: Q01DX001 (ip), vehicle: saline
[4] = dose: 200.0 mg/kg/injection, schedule: Q01DX009 (ip), vehicle: saline with Tween-80
[5] = dose: 200.0 mg/kg/injection, schedule: Q01DX009 (ip), vehicle: saline
[6] = dose: 200.0 mg/kg/injection, schedule: Q04DX003 (ip), vehicle: saline
[7] = dose: 400.0 mg/kg/injection, schedule: Q01DX001 (ip), vehicle: saline
[8] = dose: 400.0 mg/kg/injection, schedule: Q01DX009 (ip), vehicle: saline with Tween-80
[9] = dose: 400.0 mg/kg/injection, schedule: Q04DX003 (ip), vehicle: saline
[10] = dose: 12.5 mg/kg/injection, schedule: Q04DX002 (ip), vehicle: Klucel (hydroxypropylcellulose) (HPC)
[11] = dose: 25.0 mg/kg/injection, schedule: Q04DX002 (ip), vehicle: Klucel (hydroxypropylcellulose) (HPC)
[12] = dose: 50.0 mg/kg/injection, schedule: Q04DX002 (ip), vehicle: Klucel (hydroxypropylcellulose) (HPC)
[13] = dose: 100.0 mg/kg/injection, schedule: Q01DX009 (ip), vehicle: Klucel (hydroxypropylcellulose) (HPC)
[14] = dose: 200.0 mg/kg/injection, schedule: Q01DX009 (ip), vehicle: Klucel (hydroxypropylcellulose) (HPC)
[15] = dose: 400.0 mg/kg/injection, schedule: Q01DX009 (ip), vehicle: Klucel (hydroxypropylcellulose) (HPC)
[16] = dose: 100.0 mg/kg/injection, schedule: Q01DX001 (ip), vehicle: saline with Tween-80
[17] = dose: 100.0 mg/kg/injection, schedule: Q01DX009 (ip), vehicle: saline with Tween-80
[18] = dose: 100.0 mg/kg/injection, schedule: Q04DX002 (ip), vehicle: saline with Tween-80
[19] = dose: 100.0 mg/kg/injection, schedule: Q04DX003 (ip), vehicle: saline with Tween-80
[20] = dose: 200.0 mg/kg/injection, schedule: Q01DX001 (ip), vehicle: saline with Tween-80
[21] = dose: 200.0 mg/kg/injection, schedule: Q04DX002 (ip), vehicle: saline with Tween-80
[22] = dose: 200.0 mg/kg/injection, schedule: Q04DX003 (ip), vehicle: saline with Tween-80
[23] = dose: 400.0 mg/kg/injection, schedule: Q04DX002 (ip), vehicle: saline with Tween-80
[24] = dose: 400.0 mg/kg/injection, schedule: Q04DX003 (ip), vehicle: saline with Tween-80
[25] = dose: 50.0 mg/kg/injection, schedule: Q01DX009 (ip), vehicle: saline with Tween-80
[26] = dose: 100.0 mg/kg/injection, schedule: Q01DX001 (ip), vehicle: carboxymethylcellulose (CMC)
[27] = dose: 50.0 mg/kg/injection, schedule: Q01DX001 (ip), vehicle: saline with Tween-80
[28] = dose: 100.0 mg/kg/injection, schedule: Q04DX003 (ip), vehicle: Klucel (hydroxypropylcellulose) (HPC)
[29] = dose: 200.0 mg/kg/injection, schedule: Q04DX003 (ip), vehicle: Klucel (hydroxypropylcellulose) (HPC)
[30] = dose: 400.0 mg/kg/injection, schedule: Q04DX003 (ip), vehicle: Klucel (hydroxypropylcellulose) (HPC)

Measured: T/C

NC(=O)CC(N)C(=O)O (stereo not drawn)
inactive: [1] 96 % of control | [2] 98 % of control | dose: 200.0 mg/kg/injection, schedule: Q01DX001 (ip), vehicle: other 107 % of control | [3] 97 % of control and 104 % of control | dose: 200.0 mg/kg/injection, schedule: Q01DX009 (ip), vehicle: other 102 % of control | [4] 98 % of control | [5] 97 % of control | dose: 200.0 mg/kg/injection, schedule: Q04DX003 (ip), vehicle: other 102 % of control | [6] 106 % of control and 108 % of control | dose: 400.0 mg/kg/injection, schedule: Q01DX001 (ip), vehicle: other 107 % of control | [7] 98 % of control | dose: 400.0 mg/kg/injection, schedule: Q01DX009 (ip), vehicle: other 94 % of control | [8] 96 % of control | dose: 400.0 mg/kg/injection, schedule: Q01DX009 (ip), vehicle: saline 103 % of control | dose: 400.0 mg/kg/injection, schedule: Q04DX003 (ip), vehicle: other 96 % of control | [9] 106 % of control and 102 % of control | dose: 800.0 mg/kg/injection, schedule: Q01DX001 (ip), vehicle: other 105 % of control | dose: 800.0 mg/kg/injection, schedule: Q01DX001 (ip), vehicle: saline 106 % of control | dose: 800.0 mg/kg/injection, schedule: Q01DX009 (ip), vehicle: other 100 % of control | dose: 800.0 mg/kg/injection, schedule: Q01DX009 (ip), vehicle: saline with Tween-80 101 % of control | dose: 800.0 mg/kg/injection, schedule: Q01DX009 (ip), vehicle: saline 100 % of control | dose: 800.0 mg/kg/injection, schedule: Q04DX003 (ip), vehicle: other 103 % of control | dose: 800.0 mg/kg/injection, schedule: Q04DX003 (ip), vehicle: saline 101 % of control | dose: 1600.0 mg/kg/injection, schedule: Q01DX001 (ip), vehicle: other 112 % of control | dose: 1600.0 mg/kg/injection, schedule: Q01DX001 (ip), vehicle: saline 101 % of control | dose: 1600.0 mg/kg/injection, schedule: Q01DX009 (ip), vehicle: other 103 % of control | dose: 1600.0 mg/kg/injection, schedule: Q01DX009 (ip), vehicle: saline with Tween-80 98 % of control | dose: 1600.0 mg/kg/injection, schedule: Q01DX009 (ip), vehicle: saline 99 % of control | dose: 1600.0 mg/kg/injection, schedule: Q04DX003 (ip), vehicle: other 96 % of control | dose: 1600.0 mg/kg/injection, schedule: Q04DX003 (ip), vehicle: saline 100 % of control

CN(CCO)CC1C(c2ccccc2)C1c1ccccc1 (stereo not drawn)
inactive: [10] 97 % of control | [11] 94 % of control | [12] 90 % of control

Cc1ccc([N+](=O)[O-])cc1NC(=O)N(CCC#N)C1CCCCC1
inactive: [13] 101 % of control | [14] 105 % of control | [15] 95 % of control

Cc1c(Cl)cccc1NC(=O)OCCCc1ccccc1
inactive: [16] 93 % of control | [17] 101 % of control and 104 % of control | [18] 96 % of control and 108 % of control | [19] 102 % of control | [20] 93 % of control | [4] 93 % of control and 96 % of control | [21] 108 % of control and 121 % of control | [22] 89 % of control | dose: 400.0 mg/kg/injection, schedule: Q01DX001 (ip), vehicle: saline with Tween-80 90 % of control | [8] 98 % of control and 90 % of control | [23] 97 % of control and 101 % of control | [24] 91 % of control

CCCCCC(=O)OC1(C(C)=O)CCC2C3CCC4=CC(=O)CCC4C3CCC21C (stereo not drawn)
inactive: [10] 94 % of control | [11] 90 % of control | [12] 94 % of control

O=C(Nc1cccc(F)c1)Nc1cc(C(F)(F)F)ccc1Cl
inactive: [25] 96 % of control | [17] 95 % of control and 97 % of control | [4] 96 % of control | [8] 88 % of control

CCCC(=O)Nc1cc2c3c(c1)CCCN3CCC2
inactive: [25] 96 % of control

CC(C)OC(C(=O)O)c1ccccc1 (stereo not drawn)
inactive: [26] 101 % of control | dose: 200.0 mg/kg/injection, schedule: Q01DX001 (ip), vehicle: carboxymethylcellulose (CMC) 101 % of control

O=S(=O)(Cc1ccccc1)CS(=O)(=O)Cc1ccccc1
inactive: dose: 75.0 mg/kg/injection, schedule: Q04DX003 (ip), vehicle: saline 92 % of control | [19] 106 % of control | dose: 150.0 mg/kg/injection, schedule: Q04DX003 (ip), vehicle: saline 90 % of control | [22] 112 % of control | dose: 300.0 mg/kg/injection, schedule: Q04DX003 (ip), vehicle: saline 87 % of control | [24] 98 % of control

COc1ccccc1-c1c(C(=O)O)cccc1[N+](=O)[O-]
inactive: [17] 98 % of control | [4] 106 % of control | [8] 101 % of control

CC(=O)OC12C=C(C)C(C3C(=O)OC(=O)C31)C(C)(C)C2 (stereo not drawn)
inactive: dose: 50.0 mg/kg/injection, schedule: Q01DX009 (ip), vehicle: saline 97 % of control | dose: 100.0 mg/kg/injection, schedule: Q01DX009 (ip), vehicle: saline 92 % of control | [5] 102 % of control

CSCC1OC(n2cnc3c(N)ncnc32)C(O)C1O (stereo not drawn)
inactive: [27] 96 % of control | [16] 96 % of control | [20] 96 % of control

CC(C)N=Cc1cc(Br)cc(Br)c1O.CC(C)N=Cc1cc(Br)cc(Br)c1O.[Co]
inactive: [2] 88 % of control | [6] 91 % of control | [9] 105 % of control

c1ccc(CCN2COc3c(ccc4cccnc34)C2)cc1
inactive: [19] 102 % of control | [24] 90 % of control

C=CC(=O)[O][Pb]([CH2]C)([CH2]C)[CH2]C
inactive: [10] 86 % of control

CC1(C)CCC2(CC1)CC(=O)OC2=O
inactive: [19] 95 % of control | [22] 97 % of control | [24] 98 % of control

COc1cc(C=O)ccc1OC(=O)Nc1cc(C)ccc1C
inactive: dose: 25.0 mg/kg/injection, schedule: Q01DX009 (ip), vehicle: saline with Tween-80 100 % of control and 91 % of control | [27] 96 % of control | [25] 97 % of control and 101 % of control | [16] 97 % of control | [18] 91 % of control and 92 % of control | [20] 94 % of control and 92 % of control | [21] 94 % of control and 106 % of control | [23] 94 % of control and 92 % of control

Cn1[nH]nnc1=S
inactive: [19] 97 % of control | [22] 112 % of control

CCCCNC(=O)Nc1ccc(SC)cc1
inactive: [13] 103 % of control | [28] 94 % of control | [14] 95 % of control | [29] 93 % of control | [15] 88 % of control | [30] 94 % of control

O=C(O)C1Cc2c([nH]c3ccccc23)C(CCCCO)N1 (stereo not drawn)
inactive: [26] 96 % of control

CC(=O)Nc1cc(Cl)c(Nc2cc(S(=O)(=O)O)c(N)c3c2C(=O)c2ccccc2C3=O)c(Cl)c1
inactive: dose: 75.0 mg/kg/injection, schedule: Q01DX001 (ip), vehicle: saline 96 % of control | dose: 150.0 mg/kg/injection, schedule: Q01DX001 (ip), vehicle: saline 88 % of control

O=C(O)c1ccccc1C(=O)OC1CC2C=CC1C21CC1 (stereo not drawn)
inactive: dose: 50.0 mg/kg/injection, schedule: Q01DX009 (ip), vehicle: Klucel (hydroxypropylcellulose) (HPC) 98 % of control | [13] 96 % of control and 95 % of control | [28] 95 % of control | [14] 100 % of control and 113 % of control | [29] 104 % of control and 106 % of control | [30] 101 % of control

O=C(NCCCl)NC1OCC(O)C(O)C1O (stereo not drawn)
inactive: [1] 112 % of control | [3] 97 % of control | [7] 103 % of control

O=[N+]([O-])c1ccccc1N=Nc1c(O)[nH]c2ccc(Br)cc12
inactive: [1] 98 % of control | [3] 101 % of control | [7] 113 % of control
